Here are results for 13 molecules from ChEMBL document CHEMBL1201862, “PubChem BioAssay data set” (2004).

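Protocol summary: plate cells (96-well), add compound at 5 concentrations, incubate 48 h, interpolate endpoints linearly. GI50 marks 50% less growth.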 Calls of active or inactive are those of the source. Cut-off read from the data, not from the text of the source: active = GI50 up to about 1.1 µM and inactive = higher.

Among the test systems are HCT-15; RPMI-8226; SN12C; OVCAR-8; U-251; HOP-62; K562; MOLT-4; LXFL 529; KM12; SK-MEL-28; TK-10; SK-MEL-2; M19-MEL; SW-620; A498; MCF7; MDA-N; Hs-578T; DU-145.
Assay in all cases: DTP human tumour cell line panel, 48 h

As for `COC(=O)C1=C(C(=O)OC)C2C=CC1C1C(Cl)=C(Cl)C21` (configuration not stated), the GI50 (usually the concentration at which growth is held to half of that of the control) with HCT-15 was > 100 µM; in the assay with RPMI-8226, > 100 µM (inactive); in the assay with SN12C, > 100 µM (inactive); with OVCAR-8 it was > 100 µM (inactive); with U-251 it was > 100 µM (inactive); with HOP-62, > 100 µM (inactive). Further, the GI50 in the assay on K562, in the assay with MOLT-4, in the assay with LXFL 529, in the assay on KM12, in the assay with SK-MEL-28 and in the assay with TK-10 was > 100 µM (inactive) throughout. Besides, the GI50 with SK-MEL-2, in the assay with M19-MEL and in the assay on SW-620 was > 100 µM (inactive) each time.

For `CCCCCCCCCCCCCCCCCC(=O)NCC(COP(=O)([O-])OCC[N+](C)(C)C)OC` (configuration not stated), the concentration for 50% growth inhibition (GI50) in the assay on HCT-15 is 1.95 µM; in the assay on RPMI-8226 it was 1.63 µM (inactive); in the assay with SN12C it was 3.85 µM (inactive); in the assay on OVCAR-8, 10.9 µM (inactive); in the assay with U-251 it was 1.87 µM (inactive); in the assay with HOP-62, 2.87 µM (inactive). Further, the GI50 with K562 was > 10 µM (inactive); in the assay on A498, 3.03 µM (inactive); in the assay on MOLT-4 it was 1.76 µM (inactive); in the assay with LXFL 529 it was 6.78 µM (inactive); in the assay with KM12, 0.766 µM (active); with SK-MEL-28, 16.6 µM (inactive). Moreover, the GI50 with TK-10 is 1.56 µM (inactive); in the assay with M19-MEL, 2.43 µM (inactive); in the assay on SW-620 it was 10.9 µM (inactive).

Consider `CC1(C)OC(=O)C(=C2CC(c3ccccc3)c3ccccc32)C(=O)O1` (configuration not stated), for which the concentration for 50% growth inhibition (GI50) in the assay with HCT-15 was > 100 µM; in the assay on RPMI-8226, > 100 µM (inactive); with SN12C, > 100 µM (inactive); with OVCAR-8, > 100 µM (inactive); in the assay with U-251, > 100 µM (inactive); in the assay with HOP-62 it was > 100 µM (inactive). Moreover, the GI50 in the assay with K562, in the assay on A498, in the assay on MOLT-4, with LXFL 529, in the assay on SK-MEL-28 and in the assay on TK-10 was > 100 µM (inactive) each time. Moreover, the GI50 with M19-MEL and in the assay on SW-620 was > 100 µM (inactive) each time.

As to `COc1ccc(C2Cc3cc(OC)c(OC)c(OC)c3C2)cc1` (configuration not stated), the GI50 is 38.6 µM with HCT-15; 18.8 µM (inactive) in the assay on RPMI-8226; 52.2 µM (inactive) in the assay on SN12C; 48.5 µM (inactive) in the assay with OVCAR-8; 73.5 µM (inactive) in the assay on U-251; 97.5 µM (inactive) in the assay on HOP-62. In addition, the GI50 is 20.2 µM (inactive) in the assay with K562; 28.6 µM (inactive) in the assay with A498; 22.4 µM (inactive) with MOLT-4; 23 µM (inactive) with KM12; 31.2 µM (inactive) in the assay with SK-MEL-28; 30.3 µM (inactive) in the assay on TK-10. Further, the GI50 was 30.6 µM (inactive) in the assay with SK-MEL-2, 41.9 µM (inactive) in the assay with M19-MEL and 29.4 µM (inactive) in the assay with SW-620.

Consider `CCCC(O)[C@@H](O)c1ccc2c(c1O)C(=O)c1c(OC)cccc1C2=O` (some centres not stated), for which the 50% growth inhibitory concentration (GI50) in the assay with HCT-15 is 26.2 µM; with RPMI-8226 it was 5.73 µM (inactive); with SN12C, 40.4 µM (inactive); in the assay on OVCAR-8, 30.1 µM (inactive); in the assay on U-251 it was 27.2 µM (inactive); in the assay on HOP-62, 55.2 µM (inactive). Besides, the GI50 in the assay on K562 was 34.3 µM (inactive); in the assay on A498, 34.5 µM (inactive); with MOLT-4, 21.1 µM (inactive); in the assay on KM12, 35.6 µM (inactive); in the assay on SK-MEL-28, 66.4 µM (inactive); in the assay with TK-10, 51.4 µM (inactive). Further, the GI50 is 46.8 µM (inactive) in the assay with SK-MEL-2, 24.2 µM (inactive) in the assay on M19-MEL and 63.2 µM (inactive) in the assay on SW-620.

Regarding `Cc1ccc(C(=O)Nc2ccccc2)cc1/N=N/N(C)C`, the GI50 in the assay on HCT-15 was > 100 µM; with SN12C it was > 100 µM (inactive); with OVCAR-8, > 100 µM (inactive); in the assay with U-251, > 100 µM (inactive); in the assay with HOP-62 it was > 100 µM (inactive); in the assay with LXFL 529, > 100 µM (inactive). The GI50 in the assay with KM12, in the assay on SK-MEL-28, in the assay with TK-10, with SK-MEL-2, in the assay on M19-MEL and in the assay with SW-620 was > 100 µM (inactive) throughout.

For `O=C(CCC(=O)Nc1cccc(C(F)(F)F)c1)CC(=O)c1ccc2ccccc2c1`, the GI50 with HCT-15 was > 100 µM; in the assay with RPMI-8226, > 100 µM (inactive); in the assay with SN12C, > 100 µM (inactive); with OVCAR-8 it was > 100 µM (inactive); in the assay on U-251 it was > 100 µM (inactive); in the assay on K562, > 100 µM (inactive). Moreover, the GI50 in the assay with A498, with MOLT-4, in the assay with LXFL 529, in the assay on KM12, in the assay with TK-10 and in the assay with SK-MEL-2 was > 100 µM (inactive) each time. In addition, the GI50 in the assay on M19-MEL and with SW-620 was > 100 µM (inactive) throughout.

For `COc1cc(C(=O)C/C(CCC(=O)Nc2ccccc2[N+](=O)[O-])=N\NC(N)=O)ccc1O`, the concentration for 50% growth inhibition (GI50) was > 100 µM in the assay with HCT-15; > 100 µM (inactive) in the assay on RPMI-8226; > 100 µM (inactive) in the assay on SN12C; > 100 µM (inactive) with OVCAR-8; > 100 µM (inactive) in the assay on U-251; > 100 µM (inactive) with HOP-62. The GI50 with K562, with A498, in the assay with MOLT-4, in the assay on KM12, with SK-MEL-28 and with TK-10 was > 100 µM (inactive) each time. Also, the GI50 in the assay with SK-MEL-2, in the assay with M19-MEL and in the assay on SW-620 was > 100 µM (inactive) throughout.

Regarding `O=C(N/C(=C\c1ccc(F)cc1)c1nc2ccccc2[nH]1)c1ccccc1`, the concentration for 50% growth inhibition (GI50) was > 100 µM in the assay on HCT-15; > 100 µM (inactive) in the assay on RPMI-8226; > 100 µM (inactive) with SN12C; > 100 µM (inactive) in the assay on OVCAR-8; > 100 µM (inactive) in the assay with U-251; > 100 µM (inactive) with K562. Further, the GI50 in the assay on A498, in the assay on MOLT-4, with LXFL 529, with KM12, in the assay with SK-MEL-28 and in the assay on TK-10 was > 100 µM (inactive) in each case. Moreover, the GI50 in the assay with SK-MEL-2, in the assay on M19-MEL and in the assay on SW-620 was > 100 µM (inactive) throughout.

Take `COc1cc(/C=C/C(=O)c2sc(Nc3ccccc3)nc2C)ccc1O`: the concentration for 50% growth inhibition (GI50) is 84.1 µM in the assay with HCT-15; 83.2 µM (inactive) in the assay on RPMI-8226; 59.6 µM (inactive) in the assay on SN12C; 96.8 µM (inactive) in the assay with OVCAR-8; > 100 µM (inactive) with U-251; 40.7 µM (inactive) in the assay with HOP-62. In addition, the GI50 was 56.4 µM (inactive) with K562; > 100 µM (inactive) in the assay with A498; 46 µM (inactive) with MOLT-4; > 100 µM (inactive) in the assay on KM12; > 100 µM (inactive) with SK-MEL-28; > 100 µM (inactive) in the assay on TK-10. The GI50 with SK-MEL-2, in the assay with M19-MEL and with SW-620 was > 100 µM (inactive) each time.

In the case of `CC(=O)Nc1ccc(-c2nnc(SCC(=O)Nc3ccccc3[N+](=O)[O-])o2)cc1`, the GI50 with HCT-15 was > 100 µM; with RPMI-8226, > 100 µM (inactive); in the assay on SN12C it was > 100 µM (inactive); with OVCAR-8, > 100 µM (inactive); in the assay with U-251 it was > 100 µM (inactive); in the assay with HOP-62, > 100 µM (inactive). The GI50 in the assay with K562 was 93.1 µM (inactive); with MOLT-4, 71.4 µM (inactive); in the assay with LXFL 529, 29.9 µM (inactive); with KM12, > 100 µM (inactive); in the assay with SK-MEL-28, > 100 µM (inactive); in the assay on TK-10, > 100 µM (inactive). Besides, the GI50 in the assay with SK-MEL-2, in the assay on M19-MEL and with SW-620 was > 100 µM (inactive) each time.

Consider `COc1ccc(C(=O)C(C(=O)C(=O)Nc2nccs2)c2ccc(OC)cc2)cc1` (configuration not stated), for which the GI50 is > 100 µM in the assay on HCT-15; > 100 µM (inactive) in the assay with RPMI-8226; > 100 µM (inactive) in the assay on SN12C; > 100 µM (inactive) in the assay on OVCAR-8; > 100 µM (inactive) in the assay on U-251; > 100 µM (inactive) with K562. Moreover, the GI50 with A498, in the assay on MOLT-4, in the assay with LXFL 529, in the assay with KM12, in the assay on SK-MEL-28 and in the assay with TK-10 was > 100 µM (inactive) in each case. For the same molecule, the GI50 in the assay on SK-MEL-2 and in the assay with SW-620 was > 100 µM (inactive) throughout.

In the case of `COc1ccc(CNc2ccn(C3OC(CO)C(O)C3O)c(=O)n2)cc1` (configuration not stated), the GI50 was 72.9 µM (inactive) in the assay with MCF7; > 100 µM with HCT-15; 86.9 µM (inactive) in the assay with RPMI-8226; > 100 µM (inactive) in the assay on SN12C; > 100 µM (inactive) in the assay on OVCAR-8; > 100 µM (inactive) with U-251. In addition, the GI50 with HOP-62 is > 100 µM (inactive); with K562 it was 34.8 µM (inactive); in the assay with A498 it was > 100 µM (inactive); with MOLT-4, 45.1 µM (inactive); with MDA-N, 49.9 µM (inactive); with KM12, 45.9 µM (inactive). In addition, the GI50 in the assay on SK-MEL-28, with Hs-578T, with TK-10, in the assay with SK-MEL-2, in the assay with DU-145 and in the assay on SW-620 was > 100 µM (inactive) in each case.
